Consider one compound from patent US11548891B1, “Quaternary ammonium salts of phenanthroindolizidine and phenanthroquinolizidine alkaloids as hypoxia-targeted anticancer agents” (BATTERJEE MEDICAL COLLEGE, priority 2022, dated 2023).

The subject of one data set is MCF7. As to the kind of experiment: Cytotoxicity under normoxia (MTT), MCF7. The following applies: Homo sapiens, MCF7, read-out: IC50 MCF7. It counts as cell-based, Human. The procedure: (§1) The cytotoxicity of the compounds 5a-c and their parent alkaloids was evaluated by the 3-[4,5-dimethylthiazole-2-yl]-2,5-diphenyltetrazolium bromide (MTT) assay against 5 cancerous and 2 non-cancerous cell lines (Table 4).
(§2) The eight cell lines HEK293 (Human embryonic kidney 293), CHO-Kt (Chinese hamster ovary K1), MCF-7 cells (Human breast adenocarcinoma), HCT116 (human colorectal carcinoma), RKO (Human rectal carcinoma), SW480 (human colorectal carcinoma), H460 (Human lung cancer), and MRCS (Normal human fetal lung fibroblast), were obtained from the ATCC. The cell lines were routinely grown in alpha minimum essential medium (α-MEM) containing 5% fetal calf serum (FCS). The appropriate number of cells (HCT116=400 cells/well, H460 cells=600 cells/well) were seeded into 96-well plates under normoxic or hypoxic conditions. Cells were plated in 100 μL α-MEM containing 10% FCS, 10 mM D-Glucose and 0.2 mM 20-deoxycytidine. After incubation for 2 h, the compounds were added at the appropriate concentration and incubated for further 4 h. The cells were then washed three times with drug-free α-MEM (containing 5% FCS and pen/strep). The plates were then incubated for 5 days under normoxic conditions. The cells were stained with sulphorhodamine B to measure total cells as per the standard procedure described in Skehan, et. al. [Skehan, P., et. al., J. Natl. Cancer Inst., 1990, 82, 1107-1112, incorporated herein by reference in its entirety]. The IC50 was determined by interpolation as the compound concentration reducing staining to 50% of controls on the same plate as per the standard procedure described in Guise, et. al. [Guise, C. P., et. al., Biochem. Pharmacol., 2007, 74, 810-820, incorporated herein by reference in its entirety].

For the next data set, the system named is H460. Kind of data set: Cytotoxicity under normoxia and hypoxia (anaerobic chamber), H460. It counts as cell-based, Human. The following applies: for IC50: Homo sapiens, NCI-H460, 4 h exposure. The procedure:
(§3) The ability of the designed prodrugs to liberate the active alkaloids in hypoxic tumors was evaluated by testing them under hypoxic conditions using an anaerobic chamber. The three prodrugs 5a-c and their parent alkaloids as well as the reference compounds PR-104A, the parent alcohol form of the phosphate pre-prodrug PR-104, and evofosfamide were tested using the HCT116 and H460 cell lines under both normoxic and hypoxic conditions (Table 5). The prodrugs were much less cytotoxic than the parent drugs, in agreement with the results using the other cell lines described above (see FIG. 6).
as §2

A further data set deals with CHO-K1. Kind of data set: Cytotoxicity under normoxia (MTT), CHO-K1. It counts as cell-based, Chinese hamster. Particulars: Cricetulus griseus, CHO-K1, read-out: IC50 CHO-K1. The procedure: as §1, §2
Data set [1] relates to HCT116. As to the kind of experiment: Cytotoxicity under normoxia and hypoxia (anaerobic chamber), HCT116. The class given is cell-based, human. The following applies: for IC50: Homo sapiens, HCT-116, 4 h exposure. The protocol:
as §3, §2

The next data set can be described thus: PBS (pH 7.4) solubility. It counts as physicochemical. The protocol: (§4) Water solubility, log D, and PAMPA-BBB were evaluated using the protocols as described in Omran, et. al. [Omran, Z., et. al., Chem. Pharm. Bull., 2019, 67, 1208-1210, incorporated herein by reference in its entirety].
The nature of the next data set: LogD. It counts as physicochemical. The procedure:
as §4

Data set [2] has as its system HCT116. Kind of data set: Cytotoxicity under normoxia (MTT), HCT116. The following applies: Homo sapiens, HCT-116, read-out: IC50 HCT116. The class given is cell-based, human. The protocol: as §1, §2
The subject of the next data set is RKO. Kind of data set: Cytotoxicity under normoxia (MTT), RKO. Particulars: Homo sapiens, RKO, read-out: IC50 RKO. It counts as cell-based, Human. The procedure:
as §1, §2

The subject of a further data set is MRC5. As to the kind of experiment: Cytotoxicity under normoxia (MTT), MRC5. The class given is cell-based, human. Particulars: Homo sapiens, MRC5, read-out: IC50 MRC5. The procedure: as §1, §2
The nature of data set [3]: BBB-Parallel Artificial Membrane Permeability Assay (BBB-PAMPA). The class given is in vitro ADME. The procedure: The physicochemical properties of the new compounds were evaluated (Table 1). […] Consequently, these derivatives lost their BBB penetrability, as predicted by the BBB-Parallel Artificial Membrane Permeability Assay (BBB-PAMPA), whereas their parent alkaloids had free passage through the BBB.
as §4

The next data set concerns SW480. As to the kind of experiment: Cytotoxicity under normoxia (MTT), SW480. It counts as cell-based, human. Particulars: Homo sapiens, SW480, read-out: IC50 SW480. The protocol: as §1, §2
Data set [4] is described as follows: Mouse microsomal liver stability assay. Particulars: male, Balb/c, mouse, 2 μM, pH 7.4. The procedure:
Protoc. […] Microsomal incubations were carried out in 96-well plates in 5 aliquots of 40 μL each. […] Control incubations were performed by replacing the NADPH-cofactor system with PBS. The additional control incubations in PBS (with 3.3 mM MgCl2) without added microsomes were carried out in this study. […] The incubations were performed in duplicates. Five time points over 40 min had been analyzed. The reactions were stopped by adding 12 volumes of 90% acetonitrile-water to incubation aliquots, followed by protein sedimentation by centrifuging at 5500 rpm for 3 min. The supernatants were analyzed using LC-MS as mentioned above.

The next data set concerns HEK293. Kind of data set: Cytotoxicity under normoxia (MTT), HEK293. It counts as cell-based, Human. Particulars: Homo sapiens, HEK293, read-out: IC50 HEK293. The protocol:
as §1, §2

Molecules are shown by their SMILES. Like-named read-outs stand apart in the source and are kept apart here. Where only a bound is given, the exact number is not on record here.

On to `COc1cc2c3c(c4cc(OC)c(OC)cc4c2cc1OC)C[N+]1(Cc2c([N+](=O)[O-])ncn2C)CCC[C@H]1C3.[Br-]` (stereo partly drawn) [Compound 5b, (13aS)-2,3,6,7-tetramethoxy-10-((1-methyl-4-nitro-1H-imidazol-5-yl)methyl)-10,11,12,13,13a, 14-hexahydro-9H-dibenzo[f,h]pyrrolo[1,2-b]isoquinolin-10-ium bromide], for which the melting point lay in the range of 165 to 167 °C. Besides, the IC50 with MCF7 is 1.5 ± 0.128 µM. For the same compound, in the data set on H460, the “HCR (Hypoxia Cytotoxicity Ratio = normoxic IC50/hypoxic IC50)” value amounted to 24. For the same compound, in the data set with H460 (H460, normoxia), the “DR (Deactivation Ratio = IC50 (prodrug)/IC50 (parent drug))” value was 719. The IC50 in the data set on H460 (H460, hypoxia, read-out: IC50 (Hypoxia)) was found to be 3.22 µM. Also, the IC50 in the data set with H460 (H460, normoxia, read-out: IC50 (Normoxia)) was 77.6 µM. For the same compound, the IC50 in the data set on CHO-K1 turned out to be 3.49 ± 0.843 µM. In addition, in the data set with HCT116 [1], the “HCR (Hypoxia Cytotoxicity Ratio = normoxic IC50/hypoxic IC50)” value is recorded as 11.3. Moreover, in the data set on HCT116 [1] (HTC 116, normoxia), the “DR (Deactivation Ratio = IC50 (prodrug)/IC50 (parent drug))” value was 689. Moreover, the IC50 in the data set on HCT116 [1] (HTC 116, hypoxia, read-out: IC50 (Hypoxia)) was determined as 1.46 µM. Besides, the IC50 in the data set on HCT116 [1] (HTC 116, normoxia, read-out: IC50 (Normoxia)) was found to be 4.49 µM. In the data set “PBS (pH 7.4) solubility”, the “PBS (pH 7.4) Solubility μM Mean ± SE” value amounted to 162 ± 3 μM. In “LogD”, the “LogD Mean ± SE” value worked out at 0.38 ± 0.04. Moreover, the IC50 in the data set on HCT116 [2] came to 3.3 ± 1.56 µM. Moreover, in the data set on RKO, the IC50 stood at 4.06 ± 0.181 µM. Also, the IC50 in the data set on MRC5 is 3.31 ± 0.163 µM. For the same compound, the “Permeability (Papp) Log [10^−6 cm/s] Mean ± SE” value in data set [3] was <−7 Log [10^−6 cm/s]. The IC50 in the data set on SW480 was determined as 7.25 ± 0.49 µM. Also, the “Kel, min^−1 (elimination rate constant)” value in data set [4] came out at 0.002 ± 0 min⁻¹. Also, the “compound metabolized into the parent drug” value in data set [4] (microsomes) is listed as “less than 1%”. Besides, the IC50 with HEK293 was 0.95 ± 0.174 µM.

For orientation: IC50 means the concentration that inhibits the measured activity by half. A word on the melting point: it is the temperature, or range, at which the solid turns liquid.
